Test results taken from US20200339953A1, “HEMATOPOIETIC STEM AND PROGENITOR CELL THERAPY” (priority 2010, published 2020).

Columns and labels:
CD34^+ cells = assay: Competitive cAMP assay (LANCE cAMP detection kit); assay type: cell-based, human
Method: The cAMP assay was performed on CD34^+ cells using the LANCE® cAMP detection kit (Perkin Elmer Inc., Waltham, Mass.) according to the manufacturer's instructions. Briefly, 3,000 CD34^+ cells (Stem Cell Technologies, Vancouver, Canada) were aliquoted in each well of a 384-well opaque white plate in the recommended stimulation buffer. Assays were performed in triplicate for all conditions.
CD34^+ cells were placed on ice prior to being stimulated with DMSO or 16,16-dimethyl PGE2 at 4° C. For assays conducted at other temperatures, e.g., 25° C. or 37° C., DMSO or 16,16-dimethyl PGE2 was added to CD34^+ cells at room temperature and then the plates were incubated with DMSO or 16,16-dmPGE2 at the experimental temperature (25° C. or 37° C.).
CD34^+ cells were incubated for periods of 5, 15, 30, 60 or 120 minutes. Following the incubation period, detection buffer was added to the stimulated cells and cells were incubated for an additional 1 hour at room temperature in detection buffer, regardless of stimulation temperature. The assay plates were analyzed using an EnVision® 2104 Multilabel Reader (Perkin Elmer) according to the manufacturer's instructions.
A competitive cAMP assay was performed using CD34^+ cells to determine the effects of time (incubation for 15, 30, 60, or 120 minutes), temperature (incubation at 4° C., 25° C., or 37° C.), and final 16,16-dimethyl PGE2 concentration (1 μM, 10 μM, 50 μM, or 100 μM) on cAMP production in the cells.

[1] = tested on: Human umbilical cord blood cells; Lin(−)CD34^+ cells isolated after treatment; assay: Gene expression arrays after treatment of whole cord blood; assay type: cell-based
Method: Further experiments were performed to determine if CD34^+ cells responded to 16,16-dimethyl PGE2 when cells were treated in the context of a whole cord blood clinical treatment protocol. Human umbilical cord blood cells were incubated for 120 minutes at 37° C. with vehicle or 10 μM 16,16-dimethyl PGE2 (See FIGS. 17A-17D). After the incubation, Lin(−) CD34^+ cells were isolated using Miltenyi magnetic sorting. Biotin-labeled aRNA was prepared from the cells, and gene expression profiles were analyzed. […]
These experiments were repeated using human whole cord blood cells to determine if the CD34^+ expression results can be translated to the clinical setting. […] After the incubation, Lin(−)CD34^+ cells were isolated, labeled aRNA was prepared from the cells, and gene expression profiles were analyzed. […]
After treatment, the cells were washed with LMD/5% HSA medium, centrifuged for 10 minutes at 650× g at room temperature and resuspended in a cold selection buffer (phosphate buffered saline (PBS) with no Ca^+ or Mg^+; 2 mM EDTA; and 0.5% HSA). […] Once the Lin-CD34^+ cells were isolated from the treated whole cord blood, an aliquot was analyzed by flow cytometry to assess purity. […]

[2] = tested on: human CD34^+ cord blood (hCD34^+ CB) cells; assay: In vitro chemotaxis assay towards SDF1α; assay type: cell-based; conditions: 10 μM, 4 hours, 37° C.; 50 ng/ml SDF1α vs DMSO or 0 ng/ml SDF1α
Method: Chemotaxis assays were performed using 96-well chemotaxis chambers, […] pore size polycarbonate membrane (Corning Inc., Corning, N.Y.) in accordance with manufacturer's instructions. Briefly, human CD34^+ cord blood (hCD34^+ CB) cells were obtained from All Cells and were thawed according to manufacturer's instruction. The cells were then treated for 4 hours at 37° C. with 16,16-dimethyl PGE2 or DMSO control at a concentration of 10 μM in StemSpan media (Stem Cell Technology, Vancouver, Canada). The cells were then washed by centrifugation (300 g for 10 minutes) and resuspended in transwell assay buffer (Phenol Red Free RPMI media (Mediatech), 0.5% lipid free BSA (Sigma-Aldrich) at a concentration of 40,000-60,000 cells/75 ul. Seventy-five μl of cell suspension was added to the upper chamber of the plate, while 235 μl of transwell assay media containing 0 or 50 ng/ml SDF1α (R&D system, Minneapolis, Minn.) was added to the bottom well. Total cell number in the lower well was obtained by flow cytometry, using 7AAD (BD Biosciences) to exclude dead cells, after 4 hours of incubation at 37° C., 5% CO2. […] Percent migration was calculated by dividing the number of the cells in the lower well by the total cell input multiplied by 100. Samples were analyzed in triplicate, the data was then averaged for statistical analysis.

## CCCCC(C)(C)[C@H](O)/C=C/[C@H]1[C@H](O)CC(=O)[C@@H]1C/C=C\CCCC(=O)O [16,16-dimethyl PGE2]
CD34^+ cells; 4° C., 1, 10, 50 and 100 μM, p>0.05
  cAMP production compared to DMSO controls: No statistically significant increase
CD34^+ cells; 37° C.
  time in which the cAMP response reached maximal levels: 15 min
CD34^+ cells; 37° C. and 25° C., 5 min up to 2 hours, 1, 10, 50 and 100 μM, p<0.001
  cAMP activity compared to DMSO control: statistically significant increase
CD34^+ cells; CD34+ cells
  threshold concentration above which the cAMP response was relatively dose-insensitive: 10 µM
CD34^+ cells; CD34+ cells, FIG. 3
  incubation time of maximal cAMP response: 30 to 60 min
[1]; 10 μM, 37° C., 2 hours, FIGS. 17A-17D
  response of whole cord blood (more than 99% Lineage+ cells): did not respond to 16,16-dimethyl PGE2 in a similar manner
[1]; whole cord blood treated 120 minutes at 37° C., Lin(−)CD34+ cells isolated
  concentration giving the maximal gene expression signature: 10 µM
[2]
  number of migrating CD34+ cells: significantly increased
